Test results published in patent publication EP4603105A1, “PHARMACEUTICAL COMPOSITION CONTAINING CYCLIC COMPOUND HAVING SELECTIVE KRAS INHIBITORY EFFECT AGAINST HRAS AND NRAS” (CHUGAI SEIYAKU KABUSHIKI KAISHA, priority 2022, dated 2024).
Where two headings read alike, the source gives them in different places.

Legend:
HRAS wild-type protein = HRAS wild-type protein (Homo sapiens, UniProt P01112); assay: Binding to HRAS by surface plasmon resonance (SPR), KD and KD ratio to KRAS; settings: ratio of KD for HRAS wild-type protein to KD for KRAS
Procedure, shortened: (§1)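 Single-cycle kinetics on GDP-loaded biotin-Avi RAS captured to ~100–300 RU; 75 s ascending injections, 100 µL/min, 30°C. HBS pH 7.4 + 10 mM MgCl2/10 µM GDP/4% DMSO. 1:1 fit, KD.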

[1] = molecular target: GDP-bound NRAS wild-type protein (Homo sapiens, UniProt P01111); assay: Binding to NRAS by surface plasmon resonance (SPR), KD and KD ratio to KRAS; settings: ratio of KD for GDP-bound NRAS wild-type protein to KD for KRAS
Procedure, shortened: as §1

[2] = system: human lung cancer strain NCI-H441; type: cell-based
Procedure, shortened: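 Proliferation was scored by […] measured after the reagent was added to cultures kept at 37°C in 5% carbon dioxide.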

[3] = NCI-H441 cells, 4 days, CellTiter-Glo, read-out: NCl-H441 IC50

Sequence of GDP-bound NRAS wild-type protein (P01111 whole entry): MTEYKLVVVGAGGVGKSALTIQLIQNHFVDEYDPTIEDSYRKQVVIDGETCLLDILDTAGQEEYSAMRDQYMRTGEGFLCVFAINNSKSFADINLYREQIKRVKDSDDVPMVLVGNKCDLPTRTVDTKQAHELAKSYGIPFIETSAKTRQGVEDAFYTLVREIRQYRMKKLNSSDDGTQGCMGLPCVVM
Sequence of HRAS wild-type protein (P01112 whole entry): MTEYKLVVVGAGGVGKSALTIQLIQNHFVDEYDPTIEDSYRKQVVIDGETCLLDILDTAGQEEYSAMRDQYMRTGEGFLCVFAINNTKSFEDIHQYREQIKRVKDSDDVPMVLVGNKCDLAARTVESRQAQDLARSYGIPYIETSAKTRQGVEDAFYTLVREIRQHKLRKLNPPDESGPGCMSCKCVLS

Row | Structure (SMILES) | HRAS /KRAS (HRAS wild-type protein) | NRAS /KRAS [1] | IC50 [2, 3] | IC50 [2]
1 | CCC[C@H]1C(=O)N[C@@H]([C@@H](C)CC)C(=O)N(C)CC(=O)N(C)[C@H]2C/C=C\CCN(C2=O)[C@@H](Cc2ccc(C(F)(F)F)cc2)C(=O)N(C)CC(=O)N[C@@H](CCc2ccc(CC)c(F)c2)C(=O)N2C[C@H](OCC)C[C@H]2C(=O)NC2(CC(C)(C)C2)C(=O)N(C)[C@@H](C2CCCC2)C(=O)N(C)[C@H](C(=O)N(C)C)CC(=O)N1C [PP2856] | A (a compound having 10 or more and less than 20 is denoted as A) | A (a compound having 10 or more and less than 20 is denoted as A) | 33.5 nM | 
2 | CCC[C@H]1C(=O)N[C@@H]([C@@H](C)CC)C(=O)N(C)CC(=O)N(C)[C@H]2C/C=C\CCN(C2=O)[C@@H](Cc2ccc(C(F)(F)F)cc2)C(=O)N(C)CC(=O)N[C@@H](CCc2cc(C)c(C(F)F)c(C)c2)C(=O)N2C[C@H](OCC)C[C@H]2C(=O)NC2(CC(C)(C)C2)C(=O)N(C)[C@@H](C2CCCC2)C(=O)N(C)[C@H](C(=O)N(C)C)CC(=O)N1C [PP2857] | A (a compound having 10 or more and less than 20 is denoted as A) | A (a compound having 10 or more and less than 20 is denoted as A) | 61.6 nM | 
3 | CCC[C@H]1C(=O)N[C@@H]([C@@H](C)CC)C(=O)N(C)CC(=O)N(C)[C@H]2C/C=C\CCN(C2=O)[C@@H](Cc2ccc(C(F)(F)F)cc2)C(=O)N(C)CC(=O)N[C@@H](CCc2ccc(C3CC3)c(Cl)c2)C(=O)N2C[C@H](OCC)C[C@H]2C(=O)NC2(CC(C)(C)C2)C(=O)N(C)[C@@H](C2CCCC2)C(=O)N(C)[C@H](C(=O)N(C)C)CC(=O)N1C [PP2858] | B (a compound having 3 or more and less than 10 is denoted as B) | A (a compound having 10 or more and less than 20 is denoted as A) | 11.8 nM | 
4 | CCC[C@H]1C(=O)N[C@@H]([C@@H](C)CC)C(=O)N(C)CC(=O)N(C)[C@H]2C/C=C\CCN(C2=O)[C@@H](Cc2ccc(C(F)(F)F)cc2)C(=O)N(C)CC(=O)N[C@@H](CCc2cc(Cl)c(C(F)(F)F)c(Cl)c2)C(=O)N2C[C@H](OCC)C[C@H]2C(=O)NC2(CC(C)(C)C2)C(=O)N(C)[C@@H](C2CCCC2)C(=O)N(C)[C@H](C(=O)N(C)C)CC(=O)N1C [PP2859] | A (a compound having 10 or more and less than 20 is denoted as A) | A (a compound having 10 or more and less than 20 is denoted as A) |  | 6.8 nM
5 | CCC[C@H]1C(=O)N[C@@H]([C@@H](C)CC)C(=O)N(C)CC(=O)N(C)[C@H]2C/C=C\CCN(C2=O)[C@@H](Cc2ccc(C(F)(F)F)cc2)C(=O)N(C)CC(=O)N[C@@H](CCc2ccc(C(F)(F)F)c(CC)c2)C(=O)N2C[C@H](OCC)C[C@H]2C(=O)NC2(CC(C)(C)C2)C(=O)N(C)[C@@H](C2CCCC2)C(=O)N(C)[C@H](C(=O)N(C)C)CC(=O)N1C [PP2861] | B (a compound having 3 or more and less than 10 is denoted as B) | A (a compound having 10 or more and less than 20 is denoted as A) |  | 6.3 nM
6 | CCC[C@H]1C(=O)N[C@@H]([C@@H](C)CC)C(=O)N(C)CC(=O)N(C)[C@H]2C/C=C\CCN(C2=O)[C@@H](Cc2ccc(C(F)(F)F)cc2)C(=O)N(C)CC(=O)N[C@@H](CCc2cc(F)c(CC)c(OC)c2)C(=O)N2C[C@H](OCC)C[C@H]2C(=O)NC2(CC(C)(C)C2)C(=O)N(C)[C@@H](C2CCCC2)C(=O)N(C)[C@H](C(=O)N(C)C)CC(=O)N1C [PP2862] | B (a compound having 3 or more and less than 10 is denoted as B) | A (a compound having 10 or more and less than 20 is denoted as A) | 36.3 nM | 
7 | CCC[C@H]1C(=O)N[C@@H]([C@@H](C)CC)C(=O)N(C)CC(=O)N(C)[C@H]2C/C=C\CCN(C2=O)[C@@H](Cc2ccc(C(F)(F)F)cc2)C(=O)N(C)CC(=O)N[C@@H](CCc2cc(C)c(C3CC3)c(C)c2)C(=O)N2C[C@H](OCC)C[C@H]2C(=O)NC2(CC(C)(C)C2)C(=O)N(C)[C@@H](C2CCCC2)C(=O)N(C)[C@H](C(=O)N(C)C)CC(=O)N1C [PP2863] | A (a compound having 10 or more and less than 20 is denoted as A) | A (a compound having 10 or more and less than 20 is denoted as A) | 128 nM | 
8 | CCC[C@H]1C(=O)N[C@@H]([C@@H](C)CC)C(=O)N(C)CC(=O)N(C)[C@H]2C/C=C\CCN(C2=O)[C@@H](Cc2ccc(C(F)(F)F)cc2)C(=O)N(C)CC(=O)N[C@@H](CCc2cc(F)c(Cl)c(OC)c2)C(=O)N2C[C@H](OCC)C[C@H]2C(=O)NC2(CC(C)(C)C2)C(=O)N(C)[C@@H](C2CCCC2)C(=O)N(C)[C@H](C(=O)N(C)C)CC(=O)N1C [PP2864] | A (a compound having 10 or more and less than 20 is denoted as A) | A (a compound having 10 or more and less than 20 is denoted as A) | 124 nM | 
9 | CCC[C@H]1C(=O)N[C@@H]([C@@H](C)CC)C(=O)N(C)CC(=O)N(C)[C@H]2C/C=C\CCN(C2=O)[C@@H](Cc2ccc(C(F)(F)F)cc2)C(=O)N(C)CC(=O)N[C@@H](CCc2cc(Cl)c(C(F)F)c(Cl)c2)C(=O)N2C[C@H](OCC)C[C@H]2C(=O)NC2(CC(C)(C)C2)C(=O)N(C)[C@@H](C2CCCC2)C(=O)N(C)[C@H](C(=O)N(C)C)CC(=O)N1C [PP2865] | A (a compound having 10 or more and less than 20 is denoted as A) | A (a compound having 10 or more and less than 20 is denoted as A) | 37.7 nM | 
10 | CCC[C@H]1C(=O)N[C@@H]([C@@H](C)CC)C(=O)N(C)CC(=O)N(C)[C@H]2C/C=C\CCN(C2=O)[C@@H](Cc2ccc(C(F)(F)F)cc2)C(=O)N(C)CC(=O)N[C@@H](CCc2cc(C)c(C(F)F)c(Cl)c2)C(=O)N2C[C@H](OCC)C[C@H]2C(=O)NC2(CC(C)(C)C2)C(=O)N(C)[C@@H](C2CCCC2)C(=O)N(C)[C@H](C(=O)N(C)C)CC(=O)N1C [PP2866] | A (a compound having 10 or more and less than 20 is denoted as A) | A (a compound having 10 or more and less than 20 is denoted as A) | 39.6 nM | 
11 | CCC[C@H]1C(=O)N[C@@H]([C@@H](C)CC)C(=O)N(C)CC(=O)N(C)[C@H]2C/C=C\CCN(C2=O)[C@@H](Cc2ccc(C(F)(F)F)cc2)C(=O)N(C)CC(=O)N[C@@H](CCc2cc(F)c(C(F)F)c(OC)c2)C(=O)N2C[C@H](OCC)C[C@H]2C(=O)NC2(CC(C)(C)C2)C(=O)N(C)[C@@H](C2CCCC2)C(=O)N(C)[C@H](C(=O)N(C)C)CC(=O)N1C [PP2867] | A (a compound having 10 or more and less than 20 is denoted as A) | A (a compound having 10 or more and less than 20 is denoted as A) | 17.1 nM | 
12 | CCC[C@H]1C(=O)N[C@@H]([C@@H](C)CC)C(=O)N(C)CC(=O)N(C)[C@H]2C/C=C\CCN(C2=O)[C@@H](Cc2ccc(C(F)(F)F)cc2)C(=O)N(C)CC(=O)N[C@@H](CCc2ccc(CC)c(OC)c2)C(=O)N2C[C@H](OCC)C[C@H]2C(=O)NC2(CC(C)(C)C2)C(=O)N(C)[C@@H](C2CCCC2)C(=O)N(C)[C@H](C(=O)N(C)C)CC(=O)N1C [PP2869] | A (a compound having 10 or more and less than 20 is denoted as A) | A (a compound having 10 or more and less than 20 is denoted as A) | 37.6 nM | 
13 | CCC[C@H]1C(=O)N[C@@H]([C@@H](C)CC)C(=O)N(C2CC2)CC(=O)N(C)[C@H]2C/C=C\CCN(C2=O)[C@@H](Cc2ccc(C)cc2)C(=O)N(C)CC(=O)N[C@@H](CCc2cc(F)c(Cl)c(OC)c2)C(=O)N2C[C@H](OCC)C[C@H]2C(=O)NC2(CC(C)(C)C2)C(=O)N(C)[C@@H](C2CCCC2)C(=O)N(C)[C@H](C(=O)N(C)C)CC(=O)N1C [PP2871] | A (a compound having 10 or more and less than 20 is denoted as A) | A (a compound having 10 or more and less than 20 is denoted as A) |  | 28.4 nM
14 | CCC[C@H]1C(=O)N[C@@H]([C@@H](C)CC)C(=O)N(C2CC2)CC(=O)N(C)[C@H]2C/C=C\CCN(C2=O)[C@@H](Cc2ccc(C)cc2)C(=O)N(C)CC(=O)N[C@@H](CCc2cc(C)c(C(F)F)c(C)c2)C(=O)N2C[C@H](OCC)C[C@H]2C(=O)NC2(CC(C)(C)C2)C(=O)N(C)[C@@H](C2CCCC2)C(=O)N(C)[C@H](C(=O)N(C)C)CC(=O)N1C [PP2873] | A (a compound having 10 or more and less than 20 is denoted as A) | A (a compound having 10 or more and less than 20 is denoted as A) |  | 128 nM
15 | CCC[C@H]1C(=O)N[C@@H]([C@@H](C)CC)C(=O)N(C2CC2)CC(=O)N(C)[C@H]2C/C=C\CCN(C2=O)[C@@H](Cc2ccc(C)cc2)C(=O)N(C)CC(=O)N[C@@H](CCc2cc(C)c(C(F)F)c(F)c2)C(=O)N2C[C@H](OCC)C[C@H]2C(=O)NC2(CC(C)(C)C2)C(=O)N(C)[C@@H](C2CCCC2)C(=O)N(C)[C@H](C(=O)N(C)C)CC(=O)N1C [PP2874] | A (a compound having 10 or more and less than 20 is denoted as A) | A (a compound having 10 or more and less than 20 is denoted as A) |  | 44 nM
